# Reference: PubChem BioAssay (NCI)
#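 Where inhibition never reached the appropriate level, the endpoint shown equals the highest concentration tested. Otherwise, values were interpolated linearly from a five-concentration, 48-hour dose response in 96-well plates. GI50 is the concentration that inhibits growth by half. TGI: concentration producing complete growth inhibition.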
# Key:
# Assay in all cases: NCI tumour cell line growth inhibition, 48 h
# [1] = test system: MDA-MB-231 breast
# [2] = test system: HT29 colon
# [3] = test system: SF-295 CNS
# [4] = test system: UACC-62 melanoma
# [5] = test system: HCC-2998 colon
# [6] = test system: T-47D breast
# [7] = test system: M14 melanoma
# [8] = test system: HS 578T breast
# [9] = test system: SNB-75 CNS
# [10] = test system: TK-10 renal
# [11] = test system: NCI/ADR-RES ovarian
# [12] = test system: SK-OV-3 ovarian
# [13] = test system: EKVX NSCLC
# [14] = test system: NCI-H522 lung
# [15] = test system: OVCAR-4 ovarian
# [16] = test system: RPMI-8226 leukemia
# [17] = test system: CAKI-1 renal
# [18] = test system: COLO 205 colon
# [19] = test system: 786-0 renal
# [20] = test system: A549 NSCLC
# [21] = test system: RXF 393 renal
# [22] = test system: ACHN renal
# [23] = test system: HCT-15 colon
# [24] = test system: SK-MEL-5 melanoma
# [25] = test system: OVCAR-8 ovarian
# [26] = test system: UO-31 renal
# [27] = test system: MALME-3M melanoma
# [28] = test system: A498 renal
# [29] = test system: SK-MEL-2 melanoma
# [30] = test system: NCI-H460 lung
# [31] = test system: SN12C renal
# [32] = test system: HCT-116 colon
# [33] = test system: SF-268 CNS
# [34] = test system: SNB-19 CNS
# [35] = test system: OVCAR-5 ovarian
# [36] = test system: MDA-MB-435
# [37] = test system: LOX IMVI melanoma
# [38] = test system: MCF7 breast
# [39] = test system: PC-3 prostate
# [40] = test system: UACC-257 melanoma
# [41] = test system: NCI-H23 lung
# [42] = test system: IGROV1 ovarian
# [43] = test system: BT-549 breast
# [44] = test system: SF-539 CNS
# [45] = test system: OVCAR-3 ovarian
# [46] = test system: SW-620 colon
# [47] = test system: HOP-92 NSCLC
# [48] = test system: KM12 colon
# [49] = test system: NCI-H226 lung
# [50] = test system: SK-MEL-28 melanoma
# [51] = test system: U251 CNS
# [52] = test system: DU-145 prostate
smiles,measurement,setting,value
Brc1ccc([I+]c2ccc(Br)cc2)cc1,GI50,[1],2.34 µM
same,TGI,[1],17 µM
same,GI50,[2],0.535 µM
same,TGI,[2],3.16 µM
same,GI50,[3],1.7 µM
same,TGI,[3],5.85 µM
same,GI50,[4],2.87 µM
same,TGI,[4],17.5 µM
same,GI50,[5],1.32 µM
same,TGI,[5],8.12 µM
same,GI50,[6],1.78 µM
same,TGI,[6],11 µM
same,GI50,[7],1.53 µM
same,TGI,[7],5.14 µM
same,GI50,[8],2.96 µM
same,TGI,[8],19.9 µM
same,GI50,[9],1.6 µM
same,TGI,[9],8.03 µM
same,GI50,[10],1.97 µM
same,TGI,[10],13.3 µM
same,GI50,[11],> 100 µM
same,TGI,[11],> 100 µM
same,GI50,[12],1.5 µM
same,TGI,[12],3.12 µM
same,GI50,[13],1.02 µM
same,TGI,[13],3.04 µM
same,GI50,[14],1.28 µM
same,TGI,[14],3.18 µM
same,GI50,[15],1.5 µM
same,TGI,[15],10.6 µM
same,GI50,[16],0.55 µM
same,TGI,[16],10.5 µM
same,GI50,[17],1.9 µM
same,TGI,[17],8.98 µM
same,GI50,[18],1.18 µM
same,TGI,[18],2.68 µM
same,GI50,[19],1.97 µM
same,TGI,[19],11.2 µM
same,GI50,[20],5.2 µM
same,TGI,[20],20.2 µM
same,GI50,[21],2.67 µM
same,TGI,[21],11.5 µM
same,GI50,[22],4.47 µM
same,TGI,[22],21 µM
same,GI50,[23],8.3 µM
same,TGI,[23],42.7 µM
same,GI50,[24],0.545 µM
same,TGI,[24],1.83 µM
same,GI50,[25],1.08 µM
same,TGI,[25],4.01 µM
same,GI50,[26],5.96 µM
same,TGI,[26],26.1 µM
same,GI50,[27],1.38 µM
same,TGI,[27],12.3 µM
same,GI50,[28],1.97 µM
same,TGI,[28],10.7 µM
same,GI50,[29],1.36 µM
same,TGI,[29],3.09 µM
same,GI50,[30],0.866 µM
same,TGI,[30],4.23 µM
same,GI50,[31],1.6 µM
same,TGI,[31],4.26 µM
same,GI50,[32],0.643 µM
same,TGI,[32],11.5 µM
same,GI50,[33],1.03 µM
same,TGI,[33],2.4 µM
same,GI50,[34],1.38 µM
same,TGI,[34],2.76 µM
same,GI50,[35],2.58 µM
same,TGI,[35],7.9 µM
same,GI50,[36],1.94 µM
same,TGI,[36],17 µM
same,GI50,[37],0.713 µM
same,TGI,[37],2.12 µM
same,GI50,[38],0.825 µM
same,TGI,[38],10.2 µM
same,GI50,[39],1.25 µM
same,TGI,[39],3.8 µM
same,GI50,[40],2.06 µM
same,TGI,[40],5.53 µM
same,GI50,[41],1.11 µM
same,TGI,[41],4.2 µM
same,GI50,[42],1.06 µM
same,TGI,[42],6.8 µM
same,GI50,[43],2.02 µM
same,TGI,[43],12.3 µM
same,GI50,[44],1.37 µM
same,TGI,[44],4.28 µM
same,GI50,[45],1.19 µM
same,TGI,[45],3.06 µM
same,GI50,[46],0.992 µM
same,TGI,[46],4.31 µM
same,GI50,[47],0.822 µM
same,TGI,[47],5.69 µM
same,GI50,[48],1.29 µM
same,TGI,[48],2.89 µM
same,GI50,[49],2.93 µM
same,TGI,[49],15.3 µM
same,GI50,[50],1.43 µM
same,TGI,[50],3.79 µM
same,GI50,[51],1.32 µM
same,TGI,[51],2.65 µM
same,GI50,[52],3.6 µM
same,TGI,[52],16.6 µM
